± gives the expanded uncertainty stated by the source.
Assay: refractive index (other wavelength) (dimensionless)
Settings: 101 kPa, Liquid, Standard Abbe refractometry

SMILES | refractive index (293.15 K, Wavelength=436.1 nm) | refractive index (293.15 K, Wavelength=513.9 nm) | refractive index (293.15 K, Wavelength=589.3 nm) | refractive index (293.15 K, Wavelength=633.2 nm) | refractive index (293.15 K, Wavelength=657.2 nm) | refractive index (298.15 K, Wavelength=436.1 nm) | refractive index (298.15 K, Wavelength=513.9 nm) | refractive index (298.15 K, Wavelength=589.3 nm) | refractive index (298.15 K, Wavelength=633.2 nm) | refractive index (298.15 K, Wavelength=657.2 nm) | refractive index (303.15 K, Wavelength=436.1 nm) | refractive index (303.15 K, Wavelength=513.9 nm) | refractive index (303.15 K, Wavelength=589.3 nm) | refractive index (303.15 K, Wavelength=633.2 nm) | refractive index (303.15 K, Wavelength=657.2 nm) | refractive index (308.15 K, Wavelength=436.1 nm) | refractive index (308.15 K, Wavelength=513.9 nm) | refractive index (308.15 K, Wavelength=589.3 nm) | refractive index (308.15 K, Wavelength=633.2 nm) | refractive index (308.15 K, Wavelength=657.2 nm) | also measured
c1ccc2c(c1)CCCC2 [1,2,3,4-tetrahydronaphthalene] | 1.56232 ± 0.00078 | 1.54872 ± 0.001 | 1.5412 ± 0.00082 | 1.53808 ± 0.00078 | 1.53694 ± 0.00075 | 1.5598 ± 0.00078 | 1.54625 ± 0.00077 | 1.53875 ± 0.00076 | 1.53565 ± 0.00075 | 1.53452 ± 0.00075 | 1.55719 ± 0.00078 | 1.54373 ± 0.00076 | 1.53628 ± 0.00075 | 1.53321 ± 0.00075 | 1.53208 ± 0.00074 | 1.55471 ± 0.00077 | 1.5413 ± 0.00076 | 1.53389 ± 0.00075 | 1.53083 ± 0.00074 | 1.52971 ± 0.00074 | refractive index (313.15 K, Wavelength=436.1 nm): 1.55219 ± 0.00077; refractive index (313.15 K, Wavelength=513.9 nm): 1.53886 ± 0.00076; refractive index (313.15 K, Wavelength=589.3 nm): 1.53148 ± 0.00075; refractive index (313.15 K, Wavelength=633.2 nm): 1.52844 ± 0.00073; refractive index (313.15 K, Wavelength=657.2 nm): 1.52732 ± 0.00074; refractive index (318.15 K, Wavelength=436.1 nm): 1.54974 ± 0.00077; refractive index (318.15 K, Wavelength=513.9 nm): 1.53647 ± 0.00059; refractive index (318.15 K, Wavelength=589.3 nm): 1.52912 ± 0.00067; refractive index (318.15 K, Wavelength=633.2 nm): 1.52629 ± 0.0007; refractive index (318.15 K, Wavelength=657.2 nm): 1.52495 ± 0.00074
CC(C)Cc1ccccc1 [(2-methylpropyl)benzene] | 1.50429 ± 0.00078 | 1.4927 ± 0.001 | 1.48654 ± 0.0008 | 1.48377 ± 0.00078 | 1.48286 ± 0.00076 | 1.50172 ± 0.00078 | 1.49023 ± 0.00076 | 1.48406 ± 0.00076 | 1.48132 ± 0.00075 | 1.48035 ± 0.00075 | 1.49916 ± 0.00078 | 1.48772 ± 0.00077 | 1.4815 ± 0.00076 | 1.47888 ± 0.00075 | 1.47798 ± 0.00074 | 1.49659 ± 0.00078 | 1.48521 ± 0.00077 | 1.47904 ± 0.00075 | 1.47643 ± 0.00075 | 1.47555 ± 0.00075 | refractive index (313.15 K, Wavelength=436.1 nm): 1.494 ± 0.00078; refractive index (313.15 K, Wavelength=513.9 nm): 1.48268 ± 0.00076; refractive index (313.15 K, Wavelength=589.3 nm): 1.47657 ± 0.00076; refractive index (313.15 K, Wavelength=633.2 nm): 1.47397 ± 0.00075; refractive index (313.15 K, Wavelength=657.2 nm): 1.47309 ± 0.00075; refractive index (318.15 K, Wavelength=436.1 nm): 1.49143 ± 0.00078; refractive index (318.15 K, Wavelength=513.9 nm): 1.48023 ± 0.0006; refractive index (318.15 K, Wavelength=589.3 nm): 1.47409 ± 0.0007; refractive index (318.15 K, Wavelength=633.2 nm): 1.47151 ± 0.00072; refractive index (318.15 K, Wavelength=657.2 nm): 1.47063 ± 0.00075
CCCCCCCCCCCC [dodecane] | 1.43105 ± 0.00072 | 1.42506 ± 0.00082 | 1.42171 ± 0.00074 | 1.42031 ± 0.00073 | 1.41993 ± 0.00071 | 1.42886 ± 0.00072 | 1.42291 ± 0.00071 | 1.41957 ± 0.00071 | 1.41815 ± 0.00071 | 1.41777 ± 0.00071 | 1.42666 ± 0.00072 | 1.42074 ± 0.00072 | 1.41742 ± 0.00071 | 1.41601 ± 0.00071 | 1.41564 ± 0.00071 | 1.42445 ± 0.00072 | 1.41857 ± 0.00072 | 1.41527 ± 0.00071 | 1.41385 ± 0.00071 | 1.4135 ± 0.00071 | refractive index (313.15 K, Wavelength=436.1 nm): 1.42223 ± 0.00072; refractive index (313.15 K, Wavelength=513.9 nm): 1.41638 ± 0.00072; refractive index (313.15 K, Wavelength=589.3 nm): 1.41309 ± 0.00071; refractive index (313.15 K, Wavelength=633.2 nm): 1.41171 ± 0.00072; refractive index (313.15 K, Wavelength=657.2 nm): 1.41134 ± 0.00071; refractive index (318.15 K, Wavelength=436.1 nm): 1.42001 ± 0.00072; refractive index (318.15 K, Wavelength=513.9 nm): 1.41418 ± 0.00063; refractive index (318.15 K, Wavelength=589.3 nm): 1.41093 ± 0.00069; refractive index (318.15 K, Wavelength=633.2 nm): 1.40943 ± 0.0007; refractive index (318.15 K, Wavelength=657.2 nm): 1.4092 ± 0.00071
